Where “and” joins values, the source holds several entries; their conditions need not be identical. Equal values may be shown once. Read-outs that look alike come from different tables or passages of the source.

Series [1] deals with X- and Y-chromosome bearing bovine sperm stained with Hoechst 33342. Kind of series: Split quality: height of peak divided by height of valley (PV), flow cytometry of stained bovine sperm. The conditions noted are these: for split enhancing effect compared to control, in words / peak to valley ratio, average 8 bulls: Ex 10; for split enhancing effect compared to control, in words: 15, 45, 125 μM, averaged over 8 bulls; for peak to valley ratio, average 8 bulls: Hoechst 64 μM; for PV: Ex 9, Bull 3, Hoechst 60 μM. Type of series: cell-based. (In general: Flow cytometry measures light scatter and fluorescence of single cells or particles in a stream.)

Series [2] has as its system membrane compromised bovine sperm stained with Hoechst 33342. The experiment in a line: Dead quenching: dead gate intensity divided by live gate intensity, flow cytometry of stained bovine sperm. It is filed as cell-based. The conditions noted are these: Ex 10; Y6 25 μM. The source says:
FIG. 4 illustrates an example bivariate plot and univariate histogram of the parameters measured during sex selection by a FACS on a flow cytometer. […] Without a dead quenching dye, both populations of sperm would overlap to a large extent, with unpredictable variations in the dead sperm.
The entire ejaculate of sperm was suspended in first staining buffer, specifically a 7.4 pH TALP described in TABLE 1, to a concentration of 160×10^6 sperm per mL (determined on nucleocounter) and divided into three aliquots of about 20 mL into 50 mL Falcon tubes and pre-warmed for 10 minutes at 34° C. The DNA selective fluorescent dye, Hoechst 33342, was added and samples were held at 34° C. for 60 minutes. 3 different Hoechst 33342 Stain Levels were used=12 μL, 14 μL and 16 μL per 2 mL (effective concentrations of 48 μM, 56 μM, 64 μM).
Preparation of the second buffer including the dead quenching dye—A 2 L bag of TALP, described in TABLE 1, was adjusted to pH 5.60 using HCl and then sterile filtered. […] For each of the four dyes tested (R40—red food dye No. 40, Y5—yellow food dye No. 5, Y6—yellow food dye No. 6 and PR—phenol red), an appropriate number of milligrams of each powder was placed in a Erlenmeyer Flask and then an exact amount of TALP pH 5.60 was added to create a […] concentration of the dye. The result was a working TALP stock for each dye with a 100% (125 μM) relative amount of dye 50% relative (62.5 μM) and 20% relative (25 μM) solutions were made by dilution of 100% by TALP pH 5.60.
After this “bulk” staining for 60 minutes, 1 mL aliquots of stained sperm were combined with 1 mL aliquots of the second buffer including the dead quenching dyes. Samples sat for approximately 30 minutes at room temperature before being analyzed on a MoFlo SX (Beckman Coulter, USA) sperm sorting flow cytometer. Event rates were held as close to 13,000 as possible at the point of data acquisition.
The total number of individual treatments was 42 tubes, each containing 2 mL of stained sample. The alignment of the sorter was established using nuclei and confirmed with live sample from the 50% Red 40 series. Once good alignment was established, each tube was placed on the sorter long enough to establish a stabile dead gate population (about 30 seconds) and then a screenshot was taken and saved as a .jpeg image. This approach of rapidly documenting each sample is used to assure the most consistent alignment between all samples. Realignment of sorter will not cause differences in the intensities of live and dead gate populations but will cause differences in split quality.
FIG. 4 illustrates an example histogram. The ratio of dead gate intensity divided by live gate intensity is created by dividing the distance “A” by the distance “B” shown as a percentage. Lower values mean higher levels of quenching. The ratio of peak height divided by valley height is created by dividing the distance “C” by the distance “D”. A value of 1.00 means “no split” while higher values mean “better splits”. […]

For series [3] the following is noted: cited from earlier work; for (local) maximum absorption wavelength, as believed: phenol red in the red molecular form; for Expected Absorption Maxima: solvent water.
Where [4] appears, read: split enhancing dye 15 μM, 30 Min incubation, Y6 25 μM in second buffer.
Where [5] appears, read: split enhancing dye 15 μM, 45 Min, Y6 25 μM.
[6] abbreviates: split enhancing dye 15 μM, 60 Min, Y6 25 μM.
Setting [7] is: split enhancing dye 15 μM, 75 Min, Y6 25 μM.
Setting [8] is: split enhancing dye 45 μM, 30 Min, Y6 25 μM.
The mark [9] stands for this setting: split enhancing dye 45 μM, 45 Min, Y6 25 μM.
Where [10] appears, read: split enhancing dye 45 μM, 60 Min, Y6 25 μM.
Where [11] appears, read: split enhancing dye 45 μM, 75 Min, Y6 25 μM.
The mark [12] stands for this setting: split enhancing dye 125 μM, 30 Min, Y6 25 μM.
Where [13] appears, read: split enhancing dye 125 μM, 45 Min, Y6 25 μM.
The mark [14] stands for this setting: split enhancing dye 125 μM, 60 Min, Y6 25 μM.
The mark [15] stands for this setting: split enhancing dye 125 μM, 75 Min, Y6 25 μM.
[16] abbreviates: shorter-wavelength local maximum.

On to `Cc1c(C(=O)O)c(O)cc2c1C(=O)c1c(O)c(C3O[C@H](CO)[C@@H](O)[C@H](O)[C@H]3O)c(O)c(O)c1C2=O` (stereo in doubt) [Red 4, carmine], for which the “split enhancing effect compared to control, in words” value in series [1] is “distinct improvements at all concentrations and at all times”. The “peak to valley ratio, average 8 bulls” value amounted to 1.09 in series [1] (setting [4]); 1.44 in series [1] (setting [5]); 1.79 in series [1] (setting [6]); 1.91 in series [1] (setting [7]); 1.18 in series [1] (setting [8]); 1.50 in series [1] (setting [9]). The “peak to valley ratio, average 8 bulls” value is 1.76 in series [1] (setting [10]); 1.94 in series [1] (setting [11]); 1.13 in series [1] (setting [12]); 1.45 in series [1] (setting [13]); 1.81 in series [1] (setting [14]); 1.95 in series [1] (setting [15]). Besides, the “dead quenching capacity of split enhancing dye in combination with yellow food dye No. 6 (FIG. 8)” value in series [2] is “significant increase in quenching the dead subpopulation”. Moreover, the “(local) maximum absorption wavelength, as believed” value in series [3] (listed as red food dye No. 4) is 520 nm and 555 nm. Also, the “Expected Absorption Maxima” value is on record as 555 nm in series [3] (listed as Red 4 (natural), longer-wavelength local maximum) and 520 nm in series [3] (listed as Red 4 (natural), shorter-wavelength local maximum).
Regarding `CCN(Cc1cccc(S(=O)(=O)[O-])c1)c1ccc(C(=C2C=CC(=[N+](CC)Cc3cccc(S(=O)(=O)[O-])c3)C=C2)c2ccccc2S(=O)(=O)[O-])cc1.[Na+].[Na+]` [Blue 1], in series [3] (setting [16]), the “Expected Absorption Maxima” value was 627 nm.
Turning to `O=C1/C(=C2\Nc3ccc(S(=O)(=O)[O-])cc3C2=O)Nc2ccc(S(=O)(=O)[O-])cc21.[Na+].[Na+]` [Blue 2], the “Expected Absorption Maxima” value in series [3] (setting [16]) is reported as 610 nm.
Take `CCN(Cc1cccc(S(=O)(=O)[O-])c1)c1ccc(C(=C2C=CC(=[N+](CC)Cc3cccc(S(=O)(=O)[O-])c3)C=C2)c2ccc(O)cc2S(=O)(=O)[O-])cc1.[Na+].[Na+]` [Green 3]: the “Expected Absorption Maxima” value in series [3] (setting [16]) was 625 nm.
Turning to `O=S(=O)([O-])c1ccc2c(N=Nc3ccc(S(=O)(=O)[O-])c4ccccc34)c(O)c(S(=O)(=O)[O-])cc2c1.[Na+].[Na+].[Na+]` [Red 2], in series [1], the “split enhancing effect compared to control, in words” value is “did not provide a split enhancing, or noise reducing effect”. Further, the “peak to valley ratio, average 8 bulls” value was 1.06 in series [1] (setting [4]); 1.15 in series [1] (setting [5]); 1.54 in series [1] (setting [6]); 1.73 in series [1] (setting [7]); 1.00 in series [1] (setting [8]); 1.05 in series [1] (setting [9]). The “peak to valley ratio, average 8 bulls” value was 1.12 in series [1] (setting [10]); 1.38 in series [1] (setting [11]); 1.00 in series [1] (setting [12]); 1.00 in series [1] (setting [13]); 1.00 in series [1] (setting [14]); 1.00 in series [1] (setting [15]). Besides, in series [2], the “dead quenching capacity of split enhancing dye in combination with yellow food dye No. 6 (FIG. 8)” value is “strong dead quenching capacity”. Besides, the “Expected Absorption Maxima” value in series [3] (setting [16]) is given as 520 nm.
Regarding `O=C(O)c1ccccc1-c1c2cc(I)c(=O)c(I)c-2oc2c(I)c(O)c(I)cc12` [Red 3, 2-(6-Hydroxy-2,4,5,7-tetraiodo-3-oxo-xanthen-9-yl)benzoic acid], the PV in series [1] (R3 25 μM with Y6 50 μM, first Y6 series) was determined as 1.45; in series [1] (R3 50 μM with R40 50 μM), 1.63; in series [1] (R3 50 μM with Y6 50 μM, second Y6 series), 1.33; in series [1] (R3 100 μM with R40 50 μM), 1.65; in series [1] (R3 100 μM with Y6 50 μM, first Y6 series), 1.38; in series [1] (R3 100 μM with Y6 50 μM, second Y6 series), 1.55. Further, the PV is reported as 1.41 in series [1] (R3 150 μM with Y6 50 μM, first Y6 series); 1.78 in series [1] (R3 200 μM with R40 50 μM); 2.15 in series [1] (R3 300 μM with R40 50 μM); 1.66 in series [1] (R3 300 μM with Y6 50 μM, first Y6 series); 1.68 in series [1] (R3 300 μM with Y6 50 μM, second Y6 series); 1.31 in series [1] (R3 600 μM with Y6 50 μM, first Y6 series). This molecule gave a PV in series [1] (R3 600 μM with Y6 50 μM, second Y6 series) of 1.42. The “peak to valley ratio, average 8 bulls” value came out at 1.05 in series [1] (setting [4]); 1.43 in series [1] (setting [5]); 1.78 in series [1] (setting [6]); 1.79 in series [1] (setting [7]); 1.05 in series [1] (setting [8]); 1.36 in series [1] (setting [9]). For the same molecule, the “peak to valley ratio, average 8 bulls” value in series [1] (setting [10]) is reported as 1.58; in series [1] (setting [11]) it was 1.60; in series [1] (setting [12]), 1.00; in series [1] (setting [13]), 1.02; in series [1] (setting [14]), 1.10; in series [1] (setting [15]) it was 1.32. Also, the “(local) maximum absorption wavelength, as believed” value in series [3] is “about 530 nm”. Further, the “Expected Absorption Maxima” value in series [3] (setting [16]) is 530 nm.
